Experimental data from ChEMBL document CHEMBL3407411, “Evaluating the risk of phospholipidosis using a new multidisciplinary pipeline approach” (Eur J Med Chem, 2015).

Key:
Assay type in all cases: cell-based
Settings in all cases: hepg2, 24 h
HepG2 [1] = test: Cytotoxicity against human HepG2 cells assessed as NBD-PC phospholipid accumulation at 0.1 to 100 uM after 24 hrs by Hoechst 33342 normalization-based fluorescence assay
HepG2 [2] = test: Cytotoxicity against human HepG2 cells assessed as reduction in cell viability after 24 hrs by Neutral red uptake assay
HepG2 [3] = test: Cytotoxicity against human HepG2 cells assessed as reduction in cell viability at >/= 50 uM after 24 hrs by Neutral red uptake assay
HepG2 [4] = test: Cytotoxicity against human HepG2 cells assessed as disruption of membrane integrity at >= 50 uM after 24 hrs by LDH release assay
HepG2 [5] = test: Cytotoxicity against human HepG2 cells assessed as NBD-PC phospholipid accumulation after 24 hrs by Hoechst 33342 normalization-based fluorescence assay
HepG2 [6] = test: Cytotoxicity against human HepG2 cells at 100 uM after 24 hrs by Hoechst 33342 staining-based fluorescence assay
HepG2 [7] = test: Cytotoxicity against human HepG2 cells assessed as increase in lysosomal beta-hexosaminidase level at 50 to 100 uM after 24 hrs by MUG-based fluorescence assay
HepG2 [8] = test: Cytotoxicity against human HepG2 cells assessed as increase in lysosomal beta-hexosaminidase level at 20 uM after 24 hrs by MUG-based fluorescence assay
HepG2 [9] = test: Cytotoxicity against human HepG2 cells assessed as increase in lysosomal beta-hexosaminidase level at 35 uM after 24 hrs by MUG-based fluorescence assay
HepG2 [10] = test: Cytotoxicity against human HepG2 cells assessed as disruption of membrane integrity at 20 uM after 24 hrs by LDH release assay
HepG2 [11] = test: Cytotoxicity against human HepG2 cells assessed as disruption of membrane integrity at 35 uM after 24 hrs by LDH release assay
HepG2 [12] = test: Cytotoxicity against human HepG2 cells assessed as formation of lysosomal inclusion bodies at 50 uM after 24 hrs by transmission electron microscopy
HepG2 [13] = test: Cytotoxicity against human HepG2 cells assessed as reduction in cell viability at 0.1 to 100 uM after 24 hrs by Neutral red uptake assay
HepG2 [14] = test: Cytotoxicity against human HepG2 cells assessed as disruption of membrane integrity up to 100 uM after 24 hrs by LDH release assay
HepG2 [15] = test: Cytotoxicity against human HepG2 cells assessed as increase in lysosomal beta-hexosaminidase level at 10 to 100 uM after 24 hrs by MUG-based fluorescence assay
HepG2 [16] = test: Cytotoxicity against human HepG2 cells assessed as reduction in cell viability at 100 uM after 24 hrs by Neutral red uptake assay

Compound | Activity (HepG2 [1]) | Activity (HepG2 [5]) | Activity (HepG2 [6]) | Activity (HepG2 [12]) | Activity (HepG2 [13]) | Activity (HepG2 [14]) | also measured
Clc1ccccc1CNC1CN2CCC1CC2 (stereo unspecified) | Non-toxic | – | – | – | – | – | –
Cc1cccc(C)c1C(OCCN(C)C)C1CCCCC1 (stereo unspecified) | – | Dose-dependent effect | Toxic | Toxic | – | – | Activity (HepG2 [2]): Dose-dependent effect; Activity (HepG2 [3]): Toxic; Activity (HepG2 [4]): Toxic; Activity (HepG2 [7]): Toxic; Activity (HepG2 [8]): Toxic; Activity (HepG2 [9]): Toxic; Activity (HepG2 [10]): Non-toxic; Activity (HepG2 [11]): Non-toxic
CCN(CC)CCNC1=Nc2ccccc2CCC1 | Non-toxic | – | – | Toxic | – | – | Activity (HepG2 [7]): Toxic
OC(CN1CCOCC1)c1csc2ccccc12 (stereo unspecified) | Non-toxic | – | – | – | Non-toxic | Non-toxic | –
CCOc1ccc(Br)cc1CNCC1CCNCC1 | – | Dose-dependent effect | Toxic | Toxic | – | – | Activity (HepG2 [2]): Dose-dependent effect; Activity (HepG2 [3]): Toxic; Activity (HepG2 [4]): Toxic; Activity (HepG2 [15]): Toxic
CCN(CC)CCNCc1c(OC)ccc2ccccc12 | – | Dose-dependent effect | Non-toxic | Toxic | – | – | Activity (HepG2 [16]): Non-toxic; Activity (HepG2 [15]): Toxic
COc1ccc(CNCC(O)c2nnn(C)n2)cc1OC (stereo unspecified) | Toxic | – | – | Toxic | Non-toxic | Non-toxic | –
c1cc(C[N+]23CN4CN(CN(C4)C2)C3)cs1 | Non-toxic | – | – | – | Non-toxic | Non-toxic | –
C1CN(CCN2CCOCC2)CCO1 | Non-toxic | – | – | – | Non-toxic | Non-toxic | –
CC1=NN(C(=O)c2nn(C)cc2[N+](=O)[O-])C(O)(C(F)(F)F)C1 (stereo unspecified) | Non-toxic | – | – | – | Non-toxic | Non-toxic | –
CCCCc1oc2ccccc2c1C(=O)c1cc(I)c(OCCN(CC)CC)c(I)c1 [AMIODARONE] | – | Dose-dependent effect | Toxic | – | – | – | Activity (HepG2 [2]): Dose-dependent effect; Activity (HepG2 [4]): Toxic; Activity (HepG2 [7]): Toxic
CN/C(=N/CCSCc1nc[nH]c1C)NC#N [CIMETIDINE] | Non-toxic | – | – | – | Non-toxic | Non-toxic | –
